According to patent publication US10988523B2, “Modified lipidated Relaxin B chain peptides and their therapeutic use” (Sanofi, priority 2018, dated 2021):
*1 amine or outer side, *2 acyl side, *3 side chain or, on linkers, in order; H or OH if unused. Where a SMILES comes first, the peptide text is derived from it. Side-chain parts run from the residue outwards. [ ]: non-standard residue; d: D form. The star is where a group is joined. X3 = CCCCCCCCCCCCCCCC(=O)N[C@@H](CCC(=O)N[C@@H](CCC(=O)N[C@@H](CCC(=O)N[C@@H](CCC(=O)NCCCC[C@H](NC(=O)CCC(=O)NCCCOCCOCCOCCCNC(=O)CCC(=O)NCCCOCCOCCOCCCN*)C(N)=O)C(=O)O)C(=O)O)C(=O)O)C(=O)O; γGlu = O=C(O)[C@H](CCC(=O)[*:2])N[*:1]; Stearoyl = CCCCCCCCCCCCCCCCCC(=O)*; Palmitoyl = CCCCCCCCCCCCCCCC(=O)*; αMeK = C[C@](N)(CCCCN)C(=O)O; Nle = CCCC[C@H](N)C(=O)O; AEEA = NCCOCCOCC(=O)O; Aib = CC(C)(N)C(=O)O

Target: T1, RXFP1 (Homo sapiens, UniProt Q9HBX9)
T1 construct: OVCAR5 cells expressing endogenous RXFP1; endogenous in cells; host or cells: OVCAR5 cells
T1 sequence (Q9HBX9 1-757): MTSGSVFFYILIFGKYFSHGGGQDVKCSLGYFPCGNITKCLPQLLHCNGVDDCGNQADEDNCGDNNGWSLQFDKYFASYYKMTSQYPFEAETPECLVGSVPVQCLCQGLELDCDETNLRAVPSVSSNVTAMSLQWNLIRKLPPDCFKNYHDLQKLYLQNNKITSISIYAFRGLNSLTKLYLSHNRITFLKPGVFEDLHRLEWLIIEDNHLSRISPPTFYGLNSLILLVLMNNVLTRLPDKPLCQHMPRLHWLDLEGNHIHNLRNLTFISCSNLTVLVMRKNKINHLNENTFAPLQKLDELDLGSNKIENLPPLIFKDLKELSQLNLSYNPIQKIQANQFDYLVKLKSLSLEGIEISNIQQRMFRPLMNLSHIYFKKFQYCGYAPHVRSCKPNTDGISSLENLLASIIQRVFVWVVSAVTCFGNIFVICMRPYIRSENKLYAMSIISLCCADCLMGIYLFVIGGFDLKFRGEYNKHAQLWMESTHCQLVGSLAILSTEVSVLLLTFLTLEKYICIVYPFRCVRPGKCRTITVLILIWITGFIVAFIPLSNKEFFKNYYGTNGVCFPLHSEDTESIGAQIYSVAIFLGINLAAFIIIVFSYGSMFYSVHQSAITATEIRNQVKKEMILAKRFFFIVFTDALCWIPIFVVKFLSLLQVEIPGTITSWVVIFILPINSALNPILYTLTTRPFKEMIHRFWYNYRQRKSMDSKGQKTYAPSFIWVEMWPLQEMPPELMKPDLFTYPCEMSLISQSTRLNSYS
Assay: OVCAR5 cAMP assay (HTRF), RXFP1 agonist activity
Type: cell-based
Settings: for EC50: OVCAR5 cells, cAMP HTRF, read-out: EC50 (nM), OVCAR 5 cells (cAMP); for Emax: OVCAR-5, maximal cAMP relative to H2-relaxin maximum (100%), read-out: EMax, OVCAR 5 cells (cAMP)
How it was run: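 cAMP accumulation readout: after 1 mM IBMX for 40 min, endogenous-RXFP1 OVCAR5 cells got rising peptide concentrations without FCS, 30 min, 37° C, then lysis with HTRF cAMP reagents. Nonlinear regression gave EC50; Emax expressed relative to H2-relaxin maximum, same occasion.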

EC50 [nM]	Emax [%]	Compound
0.32	92	CCCCCCCCCCCCCCCCCC(=O)N[C@@H](CCC(=O)N[C@@H](CCC(=O)N[C@@H](CCC(=O)N[C@@H](CCC(=O)NCCCC[C@H](NC(=O)COCCOCCNC(=O)COCCOCCNC(=O)COCCOCCNC(=O)COCCOCCNC(=O)[C@H](CCCCN)NC(=O)[C@H](CCCCN)NC(=O)[C@H](CCCNC(=N)N)NC(=O)C(C)(C)NC(=O)[C@H](CO)NC(=O)[C@H](Cc1c[nH]c2ccccc12)NC(=O)[C@@H](NC(=O)[C@H](CO)NC(=O)[C@H](CCCC)NC(=O)CNC(=O)[C@H](CCC(=O)O)NC(=O)C(C)(C)NC(=O)C(C)(C)NC(=O)[C@@H](NC(=O)[C@H](CCCCNC(C)=O)NC(=O)[C@H](C)NC(=O)[C@H](CCCNC(=N)N)NC(=O)[C@@H](NC(=O)[C@H](CCCCN)NC(=O)[C@H](CCC(=O)O)NC(=O)[C@H](CCCNC(=N)N)NC(=O)CNC(=O)[C@H](CCC(=O)O)NC(=O)[C@H](CC(C)C)NC(C)=O)C(C)C)[C@@H](C)CC)[C@@H](C)O)C(N)=O)C(=O)O)C(=O)O)C(=O)O)C(=O)O [compound 15] (Ac-LEGREKVRAK(Ac)I[Aib][Aib]EG[Nle]STWS[Aib]RKK[AEEA][AEEA][AEEA][AEEA]K([γGlu-γGlu-γGlu-γGlu-Stearoyl])-NH2)
0.02	91	CCCCCCCCCCCCCCCC(=O)N[C@@H](CCC(=O)N[C@@H](CCC(=O)N[C@@H](CCC(=O)N[C@@H](CCC(=O)NCCCC[C@H](NC(=O)CCC(=O)NCCCOCCOCCOCCCNC(=O)CCC(=O)NCCCOCCOCCOCCCNC(=O)[C@H](CCCCNC(C)=O)NC(=O)[C@H](CCCCN)NC(=O)[C@H](CCCNC(=N)N)NC(=O)[C@](C)(CCCCN)NC(=O)[C@H](CO)NC(=O)[C@H](Cc1ccccc1)NC(=O)[C@@H](NC(=O)[C@H](CO)NC(=O)[C@H](CCCC)NC(=O)CNC(=O)[C@H](CCC(=O)O)NC(=O)C(C)(C)NC(=O)C(C)(C)NC(=O)[C@@H](NC(=O)[C@H](CCCCNC(C)=O)NC(=O)[C@H](C)NC(=O)[C@H](CCCNC(=N)N)NC(=O)[C@@H](NC(=O)[C@H](CCCCN)NC(=O)[C@H](CCC(=O)O)NC(=O)[C@H](CCCNC(=N)N)NC(=O)CNC(=O)[C@H](CCC(=O)O)NC(=O)[C@H](CC(C)C)NC(C)=O)C(C)C)[C@@H](C)CC)[C@@H](C)O)C(N)=O)C(=O)O)C(=O)O)C(=O)O)C(=O)O [compound 142] (Ac-LEGREKVRAK(Ac)I[Aib][Aib]EG[Nle]STFS[αMeK]RKK(Ac)-X3)
	85	CCCCCCCCCCCCCCCC(=O)N[C@@H](CCC(=O)N[C@@H](CCC(=O)N[C@@H](CCC(=O)NCCOCCOCC(=O)NCCOCCOCC(=O)NCCCC[C@H](NC(=O)[C@H](CCCCN)NC(=O)[C@H](CCCNC(=N)N)NC(=O)C(C)(C)NC(=O)[C@H](CO)NC(=O)[C@H](Cc1c[nH]c2ccccc12)NC(=O)[C@@H](NC(=O)[C@H](CO)NC(=O)[C@H](CCCC)NC(=O)CNC(=O)[C@H](CCC(=O)O)NC(=O)C(C)(C)NC(=O)C(C)(C)NC(=O)[C@@H](NC(=O)[C@H](CCCCNC(C)=O)NC(=O)[C@H](C)NC(=O)[C@H](CCCNC(=N)N)NC(=O)[C@@H](NC(=O)[C@H](CCCCN)NC(=O)[C@H](CCC(=O)O)NC(=O)[C@H](CCCNC(=N)N)NC(=O)CNC(=O)[C@H](CCC(=O)O)NC(=O)[C@H](CC(C)C)NC(C)=O)C(C)C)[C@@H](C)CC)[C@@H](C)O)C(N)=O)C(=O)O)C(=O)O)C(=O)O [compound 59] (Ac-LEGREKVRAK(Ac)I[Aib][Aib]EG[Nle]STWS[Aib]RKK([AEEA-AEEA-γGlu-γGlu-γGlu-Palmitoyl])-NH2)
